What was measured:
Type in all cases: functional
Enterococcus faecium [1] = assay: Antibacterial activity against vancomycin-resistant Enterococcus faecium clinical isolate 5396 after overnight incubation by two-fold serial dilution method
Enterococcus faecium [2] = assay: Antibacterial activity against vancomycin-resistant Enterococcus faecium clinical isolate 12875 after overnight incubation by two-fold serial dilution method
Enterococcus faecalis [3] = assay: Antibacterial activity against vancomycin-resistant Enterococcus faecalis clinical isolate 7846 after overnight incubation by two-fold serial dilution method
Enterococcus faecalis [4] = assay: Antibacterial activity against vancomycin-resistant Enterococcus faecalis clinical isolate 27728 after overnight incubation by two-fold serial dilution method
Enterococcus faecium [5] = assay: Antibacterial activity against vancomycin-resistant Enterococcus faecium clinical isolate 151495 after overnight incubation by two-fold serial dilution method
Enterococcus faecium [6] = assay: Antibacterial activity against vancomycin-resistant Enterococcus faecium clinical isolate 27/221 after overnight incubation by two-fold serial dilution method
Enterococcus faecalis [7] = assay: Antibacterial activity against vancomycin-resistant Enterococcus faecalis clinical isolate 7670 after overnight incubation by two-fold serial dilution method
Enterococcus faecalis [8] = assay: Antibacterial activity against vancomycin-resistant Enterococcus faecalis clinical isolate 387702 after overnight incubation by two-fold serial dilution method
Enterococcus [9] = assay: Antibacterial activity against vancomycin-resistant Enterococcus ATCC 29212 after overnight incubation by two-fold serial dilution method
Enterococcus faecalis [10] = assay: Antibacterial activity against vancomycin-resistant Enterococcus faecalis clinical isolate 7077 after overnight incubation by two-fold serial dilution method
Enterococcus faecium [11] = assay: Antibacterial activity against vancomycin-resistant Enterococcus faecium clinical isolate 3864 after overnight incubation by two-fold serial dilution method
Enterococcus faecium [12] = assay: Antibacterial activity against vancomycin-resistant Enterococcus faecium clinical isolate 16115 after overnight incubation by two-fold serial dilution method
Enterococcus faecalis [13] = assay: Antibacterial activity against vancomycin-resistant Enterococcus faecalis clinical isolate 5648 after overnight incubation by two-fold serial dilution method
Enterococcus faecalis [14] = assay: Antibacterial activity against vancomycin-resistant Enterococcus faecalis clinical isolate 22626 after overnight incubation by two-fold serial dilution method
Enterococcus faecium [15] = assay: Antibacterial activity against vancomycin-resistant Enterococcus faecium clinical isolate 7/27 after overnight incubation by two-fold serial dilution method
Enterococcus faecium [16] = assay: Antibacterial activity against vancomycin-resistant Enterococcus faecium clinical isolate 147969 after overnight incubation by two-fold serial dilution method
Enterococcus faecium [17] = assay: Antibacterial activity against vancomycin-resistant Enterococcus faecium clinical isolate 27/16917 after overnight incubation by two-fold serial dilution method; details: isolate 27/1691
Enterococcus faecium [18] = assay: Antibacterial activity against vancomycin-resistant Enterococcus faecium clinical isolate 29/203 after overnight incubation by two-fold serial dilution method
Enterococcus faecium [19] = assay: Antibacterial activity against vancomycin-resistant Enterococcus faecium clinical isolate 6/22 after overnight incubation by two-fold serial dilution method
Enterococcus faecium [20] = assay: Antibacterial activity against vancomycin-resistant Enterococcus faecium clinical isolate 30/48 after overnight incubation by two-fold serial dilution method
Enterococcus faecium [21] = assay: Antibacterial activity against vancomycin-resistant Enterococcus faecium clinical isolate 14643 after overnight incubation by two-fold serial dilution method
Enterococcus faecium [22] = assay: Antibacterial activity against vancomycin-resistant Enterococcus faecium clinical isolate 12/266 after overnight incubation by two-fold serial dilution method
Enterococcus faecium [23] = assay: Antibacterial activity against vancomycin-resistant Enterococcus faecium clinical isolate 31386 after overnight incubation by two-fold serial dilution method
Enterococcus faecium [24] = assay: Antibacterial activity against vancomycin-resistant Enterococcus faecium clinical isolate 31176 after overnight incubation by two-fold serial dilution method
Enterococcus faecalis [25] = assay: Antibacterial activity against vancomycin-resistant Enterococcus faecalis clinical isolate 22/203 after overnight incubation by two-fold serial dilution method
Enterococcus faecium [26] = assay: Antibacterial activity against vancomycin-resistant Enterococcus faecium clinical isolate 15/213 after overnight incubation by two-fold serial dilution method
Enterococcus faecalis [27] = assay: Antibacterial activity against vancomycin-resistant Enterococcus faecalis clinical isolate 5814 after overnight incubation by two-fold serial dilution method
Enterococcus faecium [28] = assay: Antibacterial activity against vancomycin-resistant Enterococcus faecium clinical isolate 10177 after overnight incubation by two-fold serial dilution method
Enterococcus faecalis [29] = assay: Antibacterial activity against vancomycin-resistant Enterococcus faecalis clinical isolate 21/235 after overnight incubation by two-fold serial dilution method
Enterococcus faecium [30] = assay: Antibacterial activity against vancomycin-resistant Enterococcus faecium clinical isolate 28/211 after overnight incubation by two-fold serial dilution method
Enterococcus [31] = assay: Antibacterial activity against vancomycin-resistant Enterococcus ATCC 51299 after overnight incubation by two-fold serial dilution method
Enterococcus faecalis [32] = assay: Antibacterial activity against vancomycin-resistant Enterococcus faecalis clinical isolate 6093 after overnight incubation by two-fold serial dilution method
Enterococcus faecium [33] = assay: Antibacterial activity against vancomycin-resistant Enterococcus faecium clinical isolate 8/224 after overnight incubation by two-fold serial dilution method
Enterococcus faecalis [34] = assay: Antibacterial activity against vancomycin-resistant Enterococcus faecalis clinical isolate 7079 after overnight incubation by two-fold serial dilution method
Enterococcus faecium [35] = assay: Antibacterial activity against vancomycin-resistant Enterococcus faecium clinical isolate 5484 after overnight incubation by two-fold serial dilution method
Enterococcus faecium [36] = assay: Antibacterial activity against vancomycin-resistant Enterococcus faecium clinical isolate 17301 after overnight incubation by two-fold serial dilution method
Enterococcus faecium [37] = assay: Antibacterial activity against vancomycin-resistant Enterococcus faecium clinical isolate 13246 after overnight incubation by two-fold serial dilution method
Enterococcus faecium [38] = assay: Antibacterial activity against vancomycin-resistant Enterococcus faecium clinical isolate 18906 after overnight incubation by two-fold serial dilution method
Enterococcus faecium [39] = assay: Antibacterial activity against vancomycin-resistant Enterococcus faecium clinical isolate 23/240 after overnight incubation by two-fold serial dilution method
Enterococcus faecium [40] = assay: Antibacterial activity against vancomycin-resistant Enterococcus faecium clinical isolate 16475 after overnight incubation by two-fold serial dilution method
Enterococcus faecalis [41] = assay: Antibacterial activity against vancomycin-resistant Enterococcus faecalis clinical isolate 5642 after overnight incubation by two-fold serial dilution method

Measured: MIC

H-HWRLLLLKKH-OH
25 µg/mL: Enterococcus faecium [1] | Enterococcus faecium [2] | Enterococcus faecalis [3] | Enterococcus faecalis [4] | Enterococcus faecium [5] | Enterococcus faecium [6] | Enterococcus faecalis [7] | Enterococcus faecalis [8] | Enterococcus [9] | Enterococcus faecalis [10] | Enterococcus faecium [11] | Enterococcus faecium [12] | Enterococcus faecalis [13] | Enterococcus faecalis [14] | Enterococcus faecium [15] | Enterococcus faecium [16] | Enterococcus faecium [17] | Enterococcus faecium [18] | Enterococcus faecium [19] | Enterococcus faecium [20] | Enterococcus faecium [21] | Enterococcus faecium [22] | Enterococcus faecium [23] | Enterococcus faecium [24] | Enterococcus faecalis [25] | Enterococcus faecium [26] | Enterococcus faecalis [27] | Enterococcus faecium [28] | Enterococcus faecalis [29] | Enterococcus faecium [30] | Enterococcus [31] | Enterococcus faecalis [32] | Enterococcus faecium [33] | Enterococcus faecalis [34] | Enterococcus faecium [35] | Enterococcus faecium [36] | Enterococcus faecium [37] | Enterococcus faecium [38] | Enterococcus faecium [39] | Enterococcus faecium [40] | Enterococcus faecalis [41]

H-RWRLLLLKKF-OH
25 µg/mL: Enterococcus faecium [1] | Enterococcus faecium [2] | Enterococcus faecalis [3] | Enterococcus faecalis [4] | Enterococcus faecium [5] | Enterococcus faecium [6] | Enterococcus faecalis [7] | Enterococcus faecalis [8] | Enterococcus [9] | Enterococcus faecalis [10] | Enterococcus faecium [11] | Enterococcus faecium [12] | Enterococcus faecalis [13] | Enterococcus faecalis [14] | Enterococcus faecium [15] | Enterococcus faecium [16] | Enterococcus faecium [17] | Enterococcus faecium [18] | Enterococcus faecium [19] | Enterococcus faecium [20] | Enterococcus faecium [21] | Enterococcus faecium [22] | Enterococcus faecium [23] | Enterococcus faecium [24] | Enterococcus faecalis [25] | Enterococcus faecium [26] | Enterococcus faecalis [27] | Enterococcus faecium [28] | Enterococcus faecalis [29] | Enterococcus faecium [30] | Enterococcus [31] | Enterococcus faecalis [32] | Enterococcus faecium [33] | Enterococcus faecalis [34] | Enterococcus faecium [35] | Enterococcus faecium [36] | Enterococcus faecium [37] | Enterococcus faecium [38] | Enterococcus faecium [39] | Enterococcus faecium [40] | Enterococcus faecalis [41]

Source: ChEMBL document CHEMBL3352237, “Synthesis and biological evaluation of novel peptide BF2 as an antibacterial agent against clinical isolates of vancomycin-resistant enterococci” (J Med Chem, 2014)
